Assay results published in PubChem BioAssay AID652062 (Broad Institute, 2013).
Where “and” joins values, the source holds several entries; their conditions need not be identical. Equal entries are not always repeated.

Test system: HeLa-AD8 Env / CEM-CCR5 cell fusion, luciferase
Test: inhibitors of clade B AD8 Env fusion, dose response, cell-based, cherry-pick (AID 652062)

SMILES | AC50
O=C(C[C@H]1C[C@H]2c3cc(NC(=O)c4ccc5c(c4)OCO5)ccc3O[C@H]2[C@H](CO)O1)NCc1ccc(Oc2ccccc2)cc1 | 15.1 µM
COC(=O)C1(C(=O)OC)C[C@H](c2ccc(OC)cc2)N(Cc2ccccc2OC)[C@@H]1c1cccs1 | 2.49 µM and 11.3 µM
C[C@H](CO)N1C[C@H](C)[C@H](CN(C)S(=O)(=O)c2ccccc2)Oc2ncc(/C=C/c3ccccc3)cc2C1=O | 23.8 µM and 3.07 µM
